This data set is described as follows: Solubility (20° C.) of branched chain-containing and straight chain-containing aromatic compounds in various solvents. Conditions: for solubility in CPME: saturated in CPME (cyclopentylmethylether) at 20° C.; for solubility in chloroform: saturated in chloroform at 20° C.; for solubility in ethyl acetate: saturated in ethyl acetate at 20° C.; for solubility in isopropyl acetate: saturated in isopropyl acetate at 20° C.; for solubility in toluene: saturated in toluene at 20° C.

Where only a bound is given, the exact number is not on record here.

As to `CCCCCCCCCCCCCCCCCCCCCCOc1ccc(C(N)c2ccc(C)cc2)cc1` (centres unmarked) [compound 3], the “solubility in CPME” value is reported as 0.01 wt %, the solubility in chloroform is 0.8 wt %, the “solubility in ethyl acetate” value amounted to 0.2 wt % and the “solubility in isopropyl acetate” value was 0.1 wt %. In addition, the solubility in toluene was found to be 0.01 wt %.

As to `CCCCCCCCCCCCCCCCCCOc1cc(CO)cc(OCCCCCCCCCCCCCCCCCC)c1OCCCCCCCCCCCCCCCCCC` [Comparative Example 1], the “solubility in CPME” value was 4.5 wt %, the solubility in chloroform is on record as 9.9 wt %, the “solubility in ethyl acetate” value is given as 0.2 wt % and the “solubility in isopropyl acetate” value is 0.02 wt %. The solubility in toluene worked out at 2.6 wt %.

Regarding `CCCCCCCCCCCCCCCCCCCCCCOc1ccc(CO)c(OCCCCCCCCCCCCCCCCCCCCCC)c1` [compound 2], the “solubility in ethyl acetate” value amounted to 0.3 wt % and the “solubility in isopropyl acetate” value turned out to be 0.06 wt %.

Consider “TERGITOL-Adduct of 3-hydroxymethylphenol [Example 21]”, for which the “solubility in CPME” value is recorded as more than 50 wt %, the solubility in chloroform is reported as more than 50 wt % and the “solubility in ethyl acetate” value is more than 50 wt %.

As to “3,4,5-tri(2′,3′-dihydrophytyloxy)benzyl alcohol [Example 5]”, the “solubility in CPME” value was more than 50 wt %, the solubility in chloroform is listed as more than 50 wt %, the “solubility in ethyl acetate” value was more than 50 wt % and the “solubility in isopropyl acetate” value is listed as more than 50 wt %. Further, the solubility in toluene is recorded as more than 50 wt %.

For the origin of these results see patent US10711033B2, “Branched chain-containing aromatic compound” (AJINOMOTO CO., INC., priority 2010, dated 2020).
